{"source": "patent US20250367229A1", "about": "“Treatment of Immune-Related Disorders, Kidney Disorders, Liver Disorders, Hemolytic Disorders, and Oxidative Stress-Associated Disorders Using NRH, NARH and Reduced Derivatives Thereof” (MitoPower LLC, priority 2021, published 2025)", "key": {"[1]": {"tested_on": "peripheral blood mononuclear cells (PBMCs)", "assay": "Extracellular acidification rate (ECAR, a measure of glycolysis) in activated PBMCs, Seahorse XF", "format": "cell-based, human", "conditions": "250 μM, 4 hr, PBMCs stimulated with anti-CD3 and anti-CD28 antibodies", "protocol": "PBMCs (1.5×10^6) obtained from a healthy human adult donor were unstimulated or stimulated with anti-CD3 and anti-CD28 antibodies (1 μg/mL each) to induce T-cell activation, in the absence or presence of 250 μM NRH for 4 hr. The cells were then washed and plated on poly-D-lysine-coated Seahorse XF microplates at a density of 3×10^5 cells per well (5 replicates). The plates were centrifuged briefly and incubated at 37° C. in a non-CO2 incubator for 30 min to settle the cells in the bottom of the plate. Extracellular acidification rate (ECAR, a measure of glycolysis) and oxygen consumption rate (OCR, a measure of oxidative phosphorylation) were determined using a Seahorse XF cell mito stress test kit and a Seahorse Xfe96 analyzer (Agilent Technologies, Santa Clara, California) under basal condition or in response to 1.0 μM oligomycin (an inhibitor of ATP synthase), 1.5 μM carbonyl cyanide-p-trifluoromethoxyphenylhydrazone (FCCP, a mitochondrial uncoupler), 0.5 μM rotenone (an inhibitor of electron transport at complex I) and antimycin A (an inhibitor of electron transport at cytochrome c reductase). PBMCs include monocytes and lymphocytes including T cells, B cells and natural killer cells."}, "CD4^+ T cells [2]": {"tested_on": "CD4^+ T cells", "assay": "Mitochondrial membrane depolarization (JC-1, flow cytometry) in CD4+ T cells", "format": "cell-based, human", "conditions": "250 μM, 24 hr, unstimulated or stimulated with anti-CD3 and anti-CD28 antibodies", "protocol": "(§1) PBMCs (10^6 cells per test group) obtained from healthy human adult donors were unstimulated or stimulated with anti-CD3 and anti-CD28 antibodies to induce T-cell activation, in the absence or presence of 250 μM of NRH or NRH-triacetate (NRHTA). Measurements were made at 5, 15 and 24 hr after treatment.\n(§2) After the indicated time of incubation, the PBMCs were stained with anti-CD3, anti-CD4 and anti-CD8 antibodies (Biolegend), JC-1 (1 μM, Thermo Fisher) and annexin V (Thermo Fisher) prior to analysis by flow cytometry. Annexin V binds to cell-surface phosphatidylserine, which is a marker for different forms of cell death including apoptosis and necrosis. The stained cells were re-suspended in phosphate-buffered saline (PBS) and acquired in a Cytek Aurora flow cytometer using a FlowJo software (v10) for analysis. About 200,000-300,000 cells were acquired in the flow cytometer for analysis. Standard procedures for spectral compensation were performed to obtain cell populations. Lymphocytes identified by forward and side scatter were gated to obtain CD3^+/CD4^+ and CD3^+/CD8^+ T-cell populations. Those T-cell populations were gated to identify the red and green signals for JC-1 aggregate and monomer, respectively, and annexin V. The percentage of cells staining green by JC-1 monomer was used to determine the percentage of cells with depolarized mitochondria. […]"}, "RBC hemoglobin": {"tested_on": "RBC hemoglobin", "assay": "H2O2-induced oxidative changes of RBC hemoglobin in vitro (spectral scans)", "format": "cell-based, human", "protocol": "A 4 M stock solution of sodium azide was prepared. One mL of the 4 M stock azide solution was diluted with 9 mL of phosphate-buffered saline (PBS, pH 7.4) to obtain a 0.4 M stock solution, which was further diluted with PBS to obtain a 0.01 M working solution of sodium azide. Eight mL of whole blood was collected in buffered acid citrate dextrose tubes from a healthy human donor. PBS was added to 500 μL of whole blood. The samples were centrifuged, and then the supernatant from each tube was discarded to obtain a red blood cell (RBC) pellet. Ten μL of 0.01 M sodium azide working solution was added to 20 μL of RBC suspension. Twenty μL of hydrogen peroxide (H2O2) diluted in PBS was added to the RBC suspension to obtain final concentrations of H2O2 ranging from 0.01 mM to 100 mM. The samples were incubated at 37° C. for 1.5 hr. 950 μL of de-ionized water was added to the samples, which were then incubated for 10 min to lyse the RBCs and obtain hemoglobin upon centrifugation at 1,500 g. Spectral scans of the lysed samples between 200 nm and 1100 nm were obtained in 2 nm increments, using a Systronics® dual-beam UV-spectrophotometer and de-ionized water as a blank. Samples incubated with PBS at 37° C. for 1-1.5 hr were used as controls to establish the oxidative effects of H2O2 on RBC hemoglobin. Absorbance at 576 nm is a measure of hemoglobin concentration in a sample, and oxidation of hemoglobin to methemoglobin results in a drop in absorbance at 576 nm and an increase in absorbance at 630 nm. Fantao et al., Anal. Biochem., 521:11-19, (2017). Stock solutions of NRH (29.6 mM) and NR (18.3 mM) were prepared in 0.9% normal saline. Appropriate quantities of the stock NRH or NR solution and PBS were added to 500 μL of whole blood to obtain final concentrations of NRH or NR ranging from 1 μM to 1000 μM. The whole blood samples with NRH or NR were mixed gently and incubated at 37° C. for 1-1.5 hr. The samples were centrifuged, and then the supernatant was discarded to obtain an RBC pellet for each sample."}, "HEK293 cells": {"tested_on": "HEK293 cells", "assay": "NADH/NAD+ ratio in H2O2-exposed HEK293 cells (NAD/NADH-Glo)", "format": "cell-based", "conditions": "NRH at 100 and 1000 μM, NR at all tested concentrations (0.01-1000 μM)", "protocol": "HEK293 cells were trypsinized and plated at a density of 60,000 cells per well. The cells were then treated with H2O2 (600 μM prepared with Dulbecco's Modified Eagle Medium [DMEM]) for 30 min. The media was then replaced with serum media (DMEM supplemented with 10% fetal bovine serum [FBS]) containing NRH or NR, and were incubated at 37° C. under 6% CO2 for 30 min or 6 hr. The cells were incubated with the following concentrations of NRH or NR: 0.01, 0.1, 1.0, 10, 100 and 1000 μM. NAD^+ and NADH levels at 30 min and 6 hr were estimated using the NAD/NADH-Glo Promega Bioluminescent assay. The results were expressed as fold change relative to the values obtained with untreated cells."}, "CD4^+ T cells [3]": {"tested_on": "CD4^+ T cells", "assay": "Cell death including apoptosis (annexin V, flow cytometry) of CD4+ T cells with depolarized mitochondria", "format": "cell-based, human", "conditions": "250 μM, 24 hr, unstimulated or stimulated with anti-CD3 and anti-CD28 antibodies", "protocol": "as §1, §2"}}, "data": [{"smiles": "NC(=O)C1=CN([C@@H]2O[C@H](CO)[C@@H](O)[C@H]2O)C=CC1", "note": "[NRH, N-(β-D-ribofuranosyl)dihydronicotinamide]", "values": [{"measurement": "extracellular acidification rate (ECAR, a measure of glycolysis) in activated PBMCs", "setting": "[1]", "result": "significantly reduced"}, {"measurement": "mitochondrial membrane depolarization in CD4+ T cells", "setting": "CD4^+ T cells [2]", "result": "significantly induced"}, {"measurement": "A576/A630 ratio (a measure of the hemoglobin/methemoglobin ratio)", "setting": "RBC hemoglobin; RBCs exposed to 1 mM H2O2, 1 μM or 100 μM NRH, NR data not shown", "result": "restored"}, {"measurement": "protection of hemoglobin from 1 mM H2O2-induced oxidative changes (amplitude of absorbance peaks at 576, 540, 434, 348 and 270 nm)", "setting": "RBC hemoglobin; pre-incubation of RBCs with 1, 10 and 100 µM", "result": "protected hemoglobin"}, {"measurement": "NADH/NAD+ ratio in HEK293 cells exposed to H2O2", "setting": "HEK293 cells; 30 min of incubation", "result": "significantly increased"}, {"measurement": "NADH/NAD+ ratio in HEK293 cells exposed to H2O2", "setting": "HEK293 cells; 6 hr of incubation", "result": "significantly increased"}, {"measurement": "cell death including apoptosis of CD4+ T cells with depolarized mitochondria", "setting": "CD4^+ T cells [3]", "result": "reduced cell death"}]}]}
